Data taken from US11149028B2, “Methods for treating melanoma using small molecules” (NOVA SOUTHEASTERN UNIVERSITY, priority 2016, dated 2021).
Entries after “also recorded” stand apart in the source; their conditions may differ.

Legend:
HSP90 = settings: human, in vivo; cited from earlier work
WM266-4 cells [1] = assay: Cell staining with dansylated derivatives of 2155-14; assay type: cell-based, human; settings: 100 μM
Experimental: WM266-4 cells were seeded at 10,000 cells/well in 0.1 mL of E-MEM medium supplemented with 10% FBS and 1% penicillin/streptomycin in 96 well plates (Greiner Bio-One CellStar cat #655180) and allowed to adhere overnight. After overnight incubation cells were stained with 100 μM of fluorescent analogs of 2155-14 for various length of time, and rinsed with warm PBS. Cells were imaged using Cytation 5 imager (Biotek Inc, Winooski, Vt.) using custom filter set: λexcitation=377/50 and λemission=542/27 nm.

[2] = test system: LC3-II and beclin-1 in WM266-4 cells; assay: Western blotting for LC3 and beclin-1, WM266-4; assay type: cell-based, human
Experimental: 1×10^6 of WM266-4 or M14 cells were seeded in 3 mL of E-MEM or RPMI-1640 medium supplemented with 10% FBS and 1% penicillin/streptomycin in 6 cm plates. […] After washing with TBST, the membranes were treated with chemilumiscent horseradish peroxidase detection reagent (Thermo Scientific, Cat #32209) and exposed to autoradiography film (Denville Scientific, Inc., Metuchen, N.J., USA, cat #E3018). ImageJ software (NIH, Bethesda, Md.) was used to quantify the intensity of proteins bands. The protein bands were normalized against loading controls (β-actin) and expressed as a fold of an untreated control.

[3] = test system: cleaved lamin A/C in WM266-4 cells; assay: Western blotting for lamin A/C cleavage; assay type: cell-based, human; settings: for cleaved lamin A/C level: 100 μM, 24 h
Experimental: 1×10^6 of WM266-4 or M14 cells were seeded in 3 mL of E-MEM or RPMI-1640 medium supplemented with 10% FBS and 1% penicillin/streptomycin in 6 cm plates. […] After washing with TBST, the membranes were treated with chemilumiscent horseradish peroxidase detection reagent (Thermo Scientific, Cat #32209) and exposed to autoradiography film (Denville Scientific, Inc., Metuchen, N.J., USA, cat #E3018). ImageJ software (NIH, Bethesda, Md.) was used to quantify the intensity of proteins bands. The protein bands were normalized against loading controls.

WM266-4 cells [4] = assay: Cell staining for autophagy (autophagosome dye); assay type: cell-based, human; settings: dansylated analog, 25 μM
Experimental: WM266-4 cells were seeded at 10,000 cells/well in 0.1 mL of E-MEM medium supplemented with 10% FBS and 1% penicillin/streptomycin in 96 well plates (Greiner Bio-One CellStar cat #655180) and allowed to adhere overnight. After overnight incubation 100 μM 2155-14, 2155-18, 50 nM hnRNPH2 siRNA or 25 μM 2476-67.2 were added and incubated for various length of time. Cells were rinsed with warm PBS and stained with CYTO-ID® 1.0 Autophagy reagent (Enzo ENZ-51031-0050) and counterstained with DAPI. Cells were imaged using Cytation 5 imager (Biotek Inc, Winooski, Vt.) using GFP and DAPI filter sets. For % autophagic cells calculations cell counts were conducted using DAPI-stained nuclei and Object Sum Area value was obtained from at least 1,000 cells/well using DAPI channels. To obtain number of cells undergoing autophagy the cell count was conducted using GFP channel. Both GFP and DAPI cell counts were conducted using optimized algorithm in automatic mode. 8 replicate wells were used. % autophagic cells was calculated using Equation 1:% autophagic cells=100%*(number of cells, GFP channenumber of cells, DAPI channel)
To calculate staining intensity, the Object Sum Area value from GFP channel was obtained and divided by number of cells using DAPI channel. Both GFP and DAPI cell counts were conducted using optimized algorithm in automatic mode. 3 replicate wells were used.

WM266-4 cells [5] = assay: CellTiter-Glo cell viability assay, WM266-4 (including rescue assays); assay type: cell-based, human; settings: 72 h; for IC50: WM 266-4, 72 h
Experimental: Cells were plated in 384-well plates in 8 μL of media. Test compounds and dabrafenib (pharmacological assay control) were prepared as 10-point, 1:3 serial dilutions starting at 300 μM, then added to the cells (4 μL per well) using the Biomek Plates were incubated for 72 h at 37° C., 5% CO2 and 95% relative humidity. After incubation, 4 μL of CellTiter-Glo® (Promega cat #: G7570) were added to each well, and incubated for 15 min at room temperature. Luminescence was recorded using a Biotek Synergy H4 multimode microplate reader. Viability was expressed as a percentage relative to wells containing media only (0%) and wells containing cells treated with DMSO only (100%). Three parameters were calculated on a per-plate basis: (a) the signal-to-background ratio (SB); (b) the coefficient for variation [CV; CV=(standard deviation/mean)×100)] for all compound test wells; and (c) the Z′-factor (18). The IC50 value of the pharmacological control (dabrafenib, LC Laboratories #G-4408) was also calculated to ascertain the assay robustness. In case of viability rescue assays, cells were pre-treated with caspase, calpain, and autophagy inhibitors for 1-3 h before addition of test compounds. Time course viability assay was done with luminescence measurements performed at 4, 24, 48, and 72 h.

hnRNP H2 = assay: Pull-down with biotinylated analogs, western blot; assay type: binding, human; settings: WM266-4 lysates
Experimental: (§1) WM-266-4 and M14 cells were sonicated in RIPA lysis buffer containing added protease inhibitors. Affinity beads were prepared by addition of the 0.3 mg biotinylated probes to the 50 μL of streptavidin agarose resin, which was washed three times with the lysis buffer. Following incubation at 4° C. for 1 h, the obtained affinity beads complexed with biotinylated compounds were washed three times with lysis buffer to remove any unbound materials. The cell lysates (1 mg protein content) were then added to the probe-bound beads, and samples were incubated at 4° C. for 1 h and overnight on a rotator. Following 5 washes with lysis buffer, the samples were subjected to SDS-PAGE. The gels were stained overnight with colloidal blue (Invitrogen). Gel bands of interest were excised, reduced, carbidomethylated, dehydrated, and digested with Trypsin Gold (Promega) as per manufacturers' instructions. Following digestion, peptides were extracted, all fractions were combined, and the volume was reduced in a SpeedVac to near dryness, and re-suspended to 20 μL using 95% ddH2O/5% ACN/0.1% formic acid (FA) prior to analysis by 1D reversed-phase LC-nESI-MS2 (as outlined below) (Ludwig, M. R. et al. Surveying the serologic proteome in a tissue-specific kras(G12D) knockin mouse model of pancreatic cancer. Proteomics 16, 516-531, doi:10.1002/pmic.201500133 2016).
(§2) WM-266-4 cells were sonicated in RIPA lysis buffer containing protease inhibitors. Affinity beads were prepared by addition of the biotinylated probes (0.3 mg) to the streptavidin agarose resin (50 μL), which was first washed three times with the lysis buffer. […] The protein extract (1 mg) was then added to the probe-bound beads, and samples were incubated at 4° C. overnight. Following 5 washes with lysis buffer, the protein isolates were subjected to SDS-PAGE followed by transfer to nitrocellulose membrane. hnRNP H2 was detected using rabbit polyclonal antibody (Abgent #: AP13497b; 1:3,000, in 2% milk overnight), DDX1 monoclonal antibody (Santa Cruz #sc-271393, 1:1,000 in 2% BSA overnight), or hnRNP B1/A2 monoclonal antibody (Santa Cruz #SC-32316, 1:1,000 in 2% BSA overnight). After washing with TBST, the membranes were treated with chemilumiscent horseradish peroxidase detection reagent (Thermo Scientific, Cat #32209) and exposed to autoradiography film (Denville Scientific, Inc., Metuchen, N.J., USA, cat #E3018). ImageJ software (NIH, Bethesda, Md.) was used to quantify the intensity of proteins bands. The protein bands were normalized against loading controls.

hnRNP A2/B1 = assay: Pull-down with biotinylated analogs, western blot; assay type: binding, human; settings: WM266-4 lysates
Experimental: as §1, §2

lamin A/C = assay: Pull-down with biotinylated analogs; assay type: binding, human; settings: WM266-4 lysates
Experimental: as §1

DDX1 = target: T1, DDX1 (Homo sapiens, UniProt Q92499); assay: Pull-down with biotinylated analogs, western blot; assay type: binding; settings: WM266-4 lysates
T1 construct: WM-266-4 and M14 cells were sonicated in RIPA lysis buffer; endogenous in cells; host or cells: WM266-4 (and M14) melanoma cells and lysates
T1 sequence (Q92499 whole entry): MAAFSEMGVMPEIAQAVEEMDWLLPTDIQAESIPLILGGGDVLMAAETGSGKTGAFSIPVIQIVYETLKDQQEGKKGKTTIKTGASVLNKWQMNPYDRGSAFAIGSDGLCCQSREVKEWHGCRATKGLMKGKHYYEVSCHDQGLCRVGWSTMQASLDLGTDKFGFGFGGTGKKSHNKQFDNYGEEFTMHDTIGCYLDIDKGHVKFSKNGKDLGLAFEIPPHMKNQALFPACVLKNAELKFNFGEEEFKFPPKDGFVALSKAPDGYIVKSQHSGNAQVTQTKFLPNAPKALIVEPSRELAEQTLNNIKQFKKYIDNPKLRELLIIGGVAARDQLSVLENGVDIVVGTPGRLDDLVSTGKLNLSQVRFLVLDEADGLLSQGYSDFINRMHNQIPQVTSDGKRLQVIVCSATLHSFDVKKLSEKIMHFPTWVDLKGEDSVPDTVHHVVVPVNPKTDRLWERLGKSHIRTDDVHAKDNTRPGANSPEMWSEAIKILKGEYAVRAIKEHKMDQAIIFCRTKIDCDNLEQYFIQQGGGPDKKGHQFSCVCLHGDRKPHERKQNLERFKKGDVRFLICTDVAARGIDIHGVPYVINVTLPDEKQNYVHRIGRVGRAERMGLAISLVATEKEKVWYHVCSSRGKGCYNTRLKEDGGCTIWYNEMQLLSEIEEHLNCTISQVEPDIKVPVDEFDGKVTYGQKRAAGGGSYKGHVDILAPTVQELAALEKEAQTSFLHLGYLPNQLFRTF
Experimental: WM-266-4 and M14 cells were sonicated in RIPA lysis buffer containing added protease inhibitors. Affinity beads were prepared by addition of the 0.3 mg biotinylated probes to the 50 μL of streptavidin agarose resin, which was washed three times with the lysis buffer. Following incubation at 4° C. for 1 h, the obtained affinity beads complexed with biotinylated compounds were washed three times with lysis buffer to remove any unbound materials. The cell lysates (1 mg protein content) were then added to the probe-bound beads, and samples were incubated at 4° C. for 1 h and overnight on a rotator. Following 5 washes with lysis buffer, the samples were subjected to SDS-PAGE. The gels were stained overnight with colloidal blue (Invitrogen). […]
WM-266-4 cells were sonicated in RIPA lysis buffer containing protease inhibitors. […] Following 5 washes with lysis buffer, the protein isolates were subjected to SDS-PAGE followed by transfer to nitrocellulose membrane. hnRNP H2 was detected using rabbit polyclonal antibody (Abgent #: AP13497b; 1:3,000, in 2% milk overnight), DDX1 monoclonal antibody (Santa Cruz #sc-271393, 1:1,000 in 2% BSA overnight), or hnRNP B1/A2 monoclonal antibody (Santa Cruz #SC-32316, 1:1,000 in 2% BSA overnight). […] ImageJ software (NIH, Bethesda, Md.) was used to quantify the intensity of proteins bands. […]

PC-3 cells = settings: read-out: IC50, apoptotic cell death of PC-3 cells; cited from earlier work

## C=CCNC1=C2C[C@@H](C)C[C@H](OC)[C@H](O)[C@@H](C)/C=C(\C)[C@H](OC(N)=O)[C@@H](OC)/C=C\C=C(/C)C(=O)NC(=CC1=O)C2=O [Compound 17-AAG]
HSP90
  clinical outcome in patients carrying BRAF or NRAS mutation: melanoma stabilization

## CN(C)c1cccc2c(S(=O)(=O)NCCN3C(=O)C(=O)N([C@H](CC4CCCCC4)CN4CCC[C@H]4CN4C(=O)C(=O)NC[C@@H]4Cc4ccccc4)C[C@@H]3Cc3ccc(O)cc3)cccc12 [Compound 2476-67.2, N-(2-((S)-4-((R)-1-((S)-2-(((S)-6-benzyl-2,3-dioxopiperazin-1-yl)methyl)pyrrolidin-1-yl)-3-cyclohexylpropan-2-yl)-6-(4-hydroxybenzyl)-2,3-dioxopiperazin-1-yl)ethyl)-5-(dimethylamino)naphthalene-1-sulfonamide]
WM266-4 cells [1]
  staining of cytoplasm: Diffuse staining of the cytoplasm
WM266-4 cells [1]; 1 h up to 48 h
  staining of nuclear envelope: stains nuclear membrane in both WM266-4 and M14 cells
[2]; 2.5 μM, 24 hr
  LC3-II level: no cleavage of lamin A/C or increase of levels of LC3-II was detected
[2]; 5 μM, 24 hr
  LC3 western blot: neither of LC3 isoforms nor actin were detected
[3]; 2.5 μM, 24 hr
  lamin A/C cleavage: no cleavage of lamin A/C
[3]; 5 μM, 24 hr
  lamin A/C western blot: striking increase of cleaved lamin A/C
WM266-4 cells [4]
  autophagosome dye staining: intensive green staining

## O=C(CCCC[C@@H]1SC[C@@H]2NC(=O)N[C@@H]21)NCCCC[C@H]1CNC(=O)C(=O)N1C[C@@H]1CCCN1C[C@@H](CC1CCCCC1)N1C[C@H](Cc2ccc(O)cc2)N(CCc2ccccc2)C(=O)C1=O [Compound 2529-3, N-(4-((S)-1-(((S)-1-((R)-3-cyclohexyl-2-((S)-5-(4-hydroxybenzyl)-2,3-dioxo-4-phenethylpiperazin-1-yl)propyl)pyrrolidin-2-yl)methyl)-5,6-dioxopiperazin-2-yl)butyl)-5-((3aS,4S,6aR)-2-oxohexahydro-1H-thieno[3,4-d]imidazol-4-yl)pentanamide]
WM266-4 cells [5]; Homo sapiens
  IC50: > 100 µM
WM266-4 cells [5]; Homo sapiens, WM 266-4, 100 μM, read-out: maximal inhibition of cell viability
  cytotoxicity at 100 µM: 42%
hnRNP H2
  hnRNP H2 in pulldown, western blot: two bands; also recorded: much less abundant
hnRNP A2/B1
  hnRNP A2/B1 in pulldown, western blot: no bands were found
[2]; 100 μM, 24 h
  LC3-II level: did not significantly increase
[3]
  cleaved lamin A/C level: did not significantly increase; also recorded: had no effect on cleavage of lamin A/C

## O=C(CCCC[C@H]1SC[C@H]2NC(=O)N[C@H]21)NCCCC[C@H]1CN([C@H](CC2CCCCC2)CN2CCC[C@H]2CN2C(=O)C(=O)NC[C@@H]2Cc2ccccc2)C(=O)C(=O)N1CCc1ccccc1 [Compound 2529-7, N-(4-((S)-4-((R)-1-((S)-2-(((S)-6-benzyl-2,3-dioxopiperazin-1-yl)methyl)pyrrolidin-1-yl)-3-cyclohexylpropan-2-yl)-5,6-dioxo-1-phenethylpiperazin-2-yl)butyl)-5-((3aR,4R,6aS)-2-oxohexahydro-1H-thieno[3,4-d]imidazol-4-yl)pentanamide]
WM266-4 cells [5]; 100 μM
  inhibition of WM266-4 viability: completely inhibited viability
WM266-4 cells [5]; Homo sapiens
  IC50: 3.3 ± 0.5 µM
hnRNP H2
  hnRNP H2 in pulldown, western blot: two bands
hnRNP A2/B1
  hnRNP A2/B1 in pulldown, western blot: three bands
Lamin A/C
  lamin A/C interaction in pulldown: lack of lamin A/C interaction
[2]; 100 μM, 24 h
  LC3-II level: increased LC3-II to the levels of 2155-14/2529-1; also recorded: effect on LC3-II levels similar to non-biotinylated 2155-14/2529-1
DDX1
  DDX1 in pulldown, western blot: confirmed
[3]
  cleaved lamin A/C level: failing to increase levels of cleaved lamin A/C; also recorded: had no effect on cleavage of lamin A/C; also recorded: did not induce cleavage of lamin A/C

## O=c1c(O)c(-c2ccc(O)c(O)c2)oc2cc(O)cc(O)c12 [quercetin]
PC-3 cells
  IC50: 100 µM
